# From ChEMBL document CHEMBL4507274 (2021)
# Active and inactive are the calls of the source. The rule behind the calls is not given here.
# What was measured:
# [1] = molecular target: Calcium/calmodulin-dependent protein kinase type II subunit beta (Homo sapiens) (UniProt Q13554); settings: Compound concentration 100.0 nM
# [2] = tested on: Epidermal growth factor receptor (Homo sapiens), P00533 [G719C]; settings: Compound concentration 100.0 nM
# [3] = tested on: Epidermal growth factor receptor (Homo sapiens), P00533 [UNDEFINED MUTATION]; settings: Compound concentration 100.0 nM
# [4] = tested on: Epidermal growth factor receptor (Homo sapiens), P00533 [UNDEFINED MUTATION]; settings: Compound concentration 100.0 nM; remark: listed apart in the source
# [5] = molecular target: 5-hydroxytryptamine receptor 2A (Homo sapiens) (UniProt P28223); settings: Compound concentration 10.0 uM
# [6] = molecular target: Alpha-1D adrenergic receptor (Homo sapiens) (UniProt P25100); settings: Compound concentration 10.0 uM
# [7] = Mechanistic tissue assay (arteria saphena rabbit); format: tissue-based, Oryctolagus cuniculus, Saphenous artery
# [8] = molecular target: Tyrosine-protein kinase Fyn (Homo sapiens) (UniProt P06241); test: Fyn (h) Upstate kinase activity assay; settings: Compound concentration 10.0 uM
# [9] = molecular target: Platelet-derived growth factor receptor alpha (Homo sapiens) (UniProt P16234); test: PDGFRalpha (h) Upstate kinase activity assay; settings: Compound concentration 10.0 uM
# [10] = molecular target: Protein kinase C gamma type (Homo sapiens) (UniProt P05129); test: PKCgamma (h) Upstate kinase activity assay; settings: Compound concentration 10.0 uM
# [11] = molecular target: T1, Serine/threonine-protein kinase D1 (Homo sapiens) (UniProt Q15139); test: PKCmu (h) Upstate kinase activity assay; settings: Compound concentration 10.0 uM
# T1 sequence (whole entry): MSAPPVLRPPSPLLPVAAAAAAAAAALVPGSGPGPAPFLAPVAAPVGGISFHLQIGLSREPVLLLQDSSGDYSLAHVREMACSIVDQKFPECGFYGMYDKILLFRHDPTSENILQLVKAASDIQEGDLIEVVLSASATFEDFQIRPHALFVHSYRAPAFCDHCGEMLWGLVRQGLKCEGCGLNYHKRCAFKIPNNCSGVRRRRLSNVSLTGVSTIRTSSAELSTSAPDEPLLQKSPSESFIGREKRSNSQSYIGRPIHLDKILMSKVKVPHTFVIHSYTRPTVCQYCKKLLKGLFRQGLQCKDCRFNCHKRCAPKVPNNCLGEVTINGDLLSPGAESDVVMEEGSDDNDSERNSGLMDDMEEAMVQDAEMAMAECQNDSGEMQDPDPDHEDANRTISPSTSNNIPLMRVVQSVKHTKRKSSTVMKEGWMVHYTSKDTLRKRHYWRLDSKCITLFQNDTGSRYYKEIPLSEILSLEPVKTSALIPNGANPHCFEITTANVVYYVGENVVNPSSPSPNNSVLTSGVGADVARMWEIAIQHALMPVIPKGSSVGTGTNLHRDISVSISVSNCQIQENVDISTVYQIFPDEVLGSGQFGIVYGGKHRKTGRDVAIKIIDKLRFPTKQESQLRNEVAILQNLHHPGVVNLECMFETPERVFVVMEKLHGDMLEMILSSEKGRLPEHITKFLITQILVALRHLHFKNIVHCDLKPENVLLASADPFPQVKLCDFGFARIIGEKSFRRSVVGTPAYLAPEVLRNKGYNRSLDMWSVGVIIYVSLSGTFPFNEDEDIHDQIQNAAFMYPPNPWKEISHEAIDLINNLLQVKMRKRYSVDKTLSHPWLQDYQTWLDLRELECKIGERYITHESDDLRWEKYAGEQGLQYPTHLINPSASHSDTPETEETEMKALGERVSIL
# [12] = molecular target: Proto-oncogene tyrosine-protein kinase ROS (Homo sapiens) (UniProt P08922); test: Ros (h) Upstate kinase activity assay; settings: Compound concentration 10.0 uM
# [13] = molecular target: Ribosomal protein S6 kinase alpha-1 (Homo sapiens) (UniProt Q15418); test: Rsk1 (h) Upstate kinase activity assay; settings: Compound concentration 10.0 uM
# [14] = molecular target: Mitogen-activated protein kinase 14 (Homo sapiens) (UniProt Q16539); test: SAPK2a (h) Upstate kinase activity assay; settings: Compound concentration 10.0 uM
# [15] = tested on: MCF7; test: Breast MCF-7 cell line MDS Pharma Services Proliferation Assay; format: functional, cell-based, Homo sapiens
# [16] = tested on: T47D; test: Breast T-47D cell line MDS Pharma Services Proliferation Assay; format: functional, cell-based, Homo sapiens
# [17] = tested on: DLD-1; test: Colon DLD-1 cell line MDS Pharma Services Proliferation Assay; format: functional, cell-based, Homo sapiens
# [18] = tested on: ACHN; test: Kidney ACHN cell line MDS Pharma Services Proliferation Assay; format: functional, cell-based, Homo sapiens
# [19] = tested on: SK-MEL-5; test: Melanoma SK-MEL-5 cell line MDS Pharma Services Proliferation Assay; format: functional, cell-based, Homo sapiens
# [20] = molecular target: 5-hydroxytryptamine receptor 1A (Homo sapiens) (UniProt P08908); settings: Compound concentration 10.0 uM
# [21] = species: Rattus norvegicus; settings: Compound concentration 10.0 uM
# [22] = molecular target: High affinity nerve growth factor receptor (Homo sapiens) (UniProt P04629); settings: Compound concentration 10.0 uM
# Chain of Proto-oncogene tyrosine-protein kinase ROS (Homo sapiens) (P08922 whole entry): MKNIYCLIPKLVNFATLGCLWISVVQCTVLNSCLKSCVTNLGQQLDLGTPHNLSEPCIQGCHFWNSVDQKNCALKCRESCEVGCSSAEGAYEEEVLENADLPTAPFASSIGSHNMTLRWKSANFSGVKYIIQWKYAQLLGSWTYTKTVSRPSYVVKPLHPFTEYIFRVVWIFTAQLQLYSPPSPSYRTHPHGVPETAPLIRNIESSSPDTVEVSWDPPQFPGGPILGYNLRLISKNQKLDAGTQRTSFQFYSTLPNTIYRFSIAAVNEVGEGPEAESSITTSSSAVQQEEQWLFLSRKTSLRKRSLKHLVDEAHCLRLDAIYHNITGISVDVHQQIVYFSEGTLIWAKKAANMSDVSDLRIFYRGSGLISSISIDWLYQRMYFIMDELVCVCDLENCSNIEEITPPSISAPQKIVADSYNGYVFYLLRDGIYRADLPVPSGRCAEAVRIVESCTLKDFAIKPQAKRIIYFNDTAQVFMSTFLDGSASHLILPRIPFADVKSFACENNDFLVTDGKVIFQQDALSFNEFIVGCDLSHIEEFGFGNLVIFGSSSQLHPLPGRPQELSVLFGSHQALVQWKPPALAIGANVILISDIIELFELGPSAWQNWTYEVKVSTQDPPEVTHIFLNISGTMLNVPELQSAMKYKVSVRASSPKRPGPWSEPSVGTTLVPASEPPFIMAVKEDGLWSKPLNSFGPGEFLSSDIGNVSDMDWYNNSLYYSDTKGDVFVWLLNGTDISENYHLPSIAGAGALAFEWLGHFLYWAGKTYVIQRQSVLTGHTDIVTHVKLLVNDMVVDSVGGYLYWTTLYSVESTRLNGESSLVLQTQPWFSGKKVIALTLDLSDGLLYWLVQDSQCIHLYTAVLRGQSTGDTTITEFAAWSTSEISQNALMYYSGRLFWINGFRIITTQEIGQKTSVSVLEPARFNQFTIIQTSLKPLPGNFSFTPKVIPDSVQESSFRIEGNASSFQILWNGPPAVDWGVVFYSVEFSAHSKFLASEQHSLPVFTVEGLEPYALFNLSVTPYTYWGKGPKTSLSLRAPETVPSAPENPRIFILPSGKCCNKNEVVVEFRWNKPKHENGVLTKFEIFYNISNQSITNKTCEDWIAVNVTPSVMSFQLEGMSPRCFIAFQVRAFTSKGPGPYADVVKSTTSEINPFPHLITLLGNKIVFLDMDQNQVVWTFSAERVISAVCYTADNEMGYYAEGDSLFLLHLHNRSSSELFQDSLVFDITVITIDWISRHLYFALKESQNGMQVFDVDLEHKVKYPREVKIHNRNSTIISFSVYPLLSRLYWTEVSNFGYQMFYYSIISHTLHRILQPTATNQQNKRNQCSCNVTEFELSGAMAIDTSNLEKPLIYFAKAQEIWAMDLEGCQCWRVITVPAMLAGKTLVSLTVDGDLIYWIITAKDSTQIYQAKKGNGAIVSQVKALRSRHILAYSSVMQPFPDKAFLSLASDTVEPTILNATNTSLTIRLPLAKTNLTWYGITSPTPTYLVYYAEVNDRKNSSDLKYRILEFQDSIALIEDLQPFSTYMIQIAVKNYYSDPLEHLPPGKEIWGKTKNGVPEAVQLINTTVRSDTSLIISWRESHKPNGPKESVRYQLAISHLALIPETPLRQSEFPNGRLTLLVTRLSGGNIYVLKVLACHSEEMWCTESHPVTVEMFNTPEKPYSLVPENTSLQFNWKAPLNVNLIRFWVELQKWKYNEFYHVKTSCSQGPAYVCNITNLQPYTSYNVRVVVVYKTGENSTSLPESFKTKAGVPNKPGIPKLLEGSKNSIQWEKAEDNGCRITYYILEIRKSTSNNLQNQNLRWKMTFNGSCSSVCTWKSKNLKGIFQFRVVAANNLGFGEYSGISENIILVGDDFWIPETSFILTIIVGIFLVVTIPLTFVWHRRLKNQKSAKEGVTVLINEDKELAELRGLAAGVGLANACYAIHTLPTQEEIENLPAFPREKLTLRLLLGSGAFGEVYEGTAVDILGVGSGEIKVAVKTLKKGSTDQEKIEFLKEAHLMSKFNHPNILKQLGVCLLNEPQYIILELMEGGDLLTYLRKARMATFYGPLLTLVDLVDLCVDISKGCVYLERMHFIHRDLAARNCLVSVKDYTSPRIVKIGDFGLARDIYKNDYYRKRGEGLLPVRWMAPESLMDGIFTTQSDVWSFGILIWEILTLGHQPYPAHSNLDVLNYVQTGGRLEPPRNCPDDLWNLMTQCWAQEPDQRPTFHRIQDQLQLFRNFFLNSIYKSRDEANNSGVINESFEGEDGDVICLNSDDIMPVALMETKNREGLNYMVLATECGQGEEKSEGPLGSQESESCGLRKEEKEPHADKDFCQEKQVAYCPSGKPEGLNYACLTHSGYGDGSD
# Chain of Alpha-1D adrenergic receptor (Homo sapiens) (P25100 whole entry): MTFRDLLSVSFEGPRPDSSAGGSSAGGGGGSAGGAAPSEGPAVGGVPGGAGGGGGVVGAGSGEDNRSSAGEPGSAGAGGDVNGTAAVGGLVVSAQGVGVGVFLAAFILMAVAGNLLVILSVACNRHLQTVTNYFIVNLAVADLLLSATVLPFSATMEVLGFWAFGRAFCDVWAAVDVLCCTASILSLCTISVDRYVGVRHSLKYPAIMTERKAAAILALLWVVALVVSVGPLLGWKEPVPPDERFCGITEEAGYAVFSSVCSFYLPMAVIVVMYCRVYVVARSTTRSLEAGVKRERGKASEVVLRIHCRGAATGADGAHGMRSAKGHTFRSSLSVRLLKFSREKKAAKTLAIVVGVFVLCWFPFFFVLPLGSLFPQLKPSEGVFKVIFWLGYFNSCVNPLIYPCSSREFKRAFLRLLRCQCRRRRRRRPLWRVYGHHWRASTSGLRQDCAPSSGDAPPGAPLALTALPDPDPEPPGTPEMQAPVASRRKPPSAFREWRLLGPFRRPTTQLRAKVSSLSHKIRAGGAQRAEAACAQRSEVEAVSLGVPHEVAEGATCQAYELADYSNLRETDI
# Chain of Mitogen-activated protein kinase 14 (Homo sapiens) (Q16539 whole entry): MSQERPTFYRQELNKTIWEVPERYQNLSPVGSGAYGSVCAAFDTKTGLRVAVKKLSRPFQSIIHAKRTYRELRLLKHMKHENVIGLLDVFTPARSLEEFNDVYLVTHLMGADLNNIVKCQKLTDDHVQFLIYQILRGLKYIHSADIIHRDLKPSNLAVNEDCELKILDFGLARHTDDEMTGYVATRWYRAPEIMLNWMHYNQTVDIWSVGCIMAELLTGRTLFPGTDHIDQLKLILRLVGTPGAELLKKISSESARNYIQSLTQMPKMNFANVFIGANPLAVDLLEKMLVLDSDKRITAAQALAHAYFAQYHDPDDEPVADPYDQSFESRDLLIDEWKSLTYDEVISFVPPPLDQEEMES
# Chain of Ribosomal protein S6 kinase alpha-1 (Homo sapiens) (Q15418 whole entry): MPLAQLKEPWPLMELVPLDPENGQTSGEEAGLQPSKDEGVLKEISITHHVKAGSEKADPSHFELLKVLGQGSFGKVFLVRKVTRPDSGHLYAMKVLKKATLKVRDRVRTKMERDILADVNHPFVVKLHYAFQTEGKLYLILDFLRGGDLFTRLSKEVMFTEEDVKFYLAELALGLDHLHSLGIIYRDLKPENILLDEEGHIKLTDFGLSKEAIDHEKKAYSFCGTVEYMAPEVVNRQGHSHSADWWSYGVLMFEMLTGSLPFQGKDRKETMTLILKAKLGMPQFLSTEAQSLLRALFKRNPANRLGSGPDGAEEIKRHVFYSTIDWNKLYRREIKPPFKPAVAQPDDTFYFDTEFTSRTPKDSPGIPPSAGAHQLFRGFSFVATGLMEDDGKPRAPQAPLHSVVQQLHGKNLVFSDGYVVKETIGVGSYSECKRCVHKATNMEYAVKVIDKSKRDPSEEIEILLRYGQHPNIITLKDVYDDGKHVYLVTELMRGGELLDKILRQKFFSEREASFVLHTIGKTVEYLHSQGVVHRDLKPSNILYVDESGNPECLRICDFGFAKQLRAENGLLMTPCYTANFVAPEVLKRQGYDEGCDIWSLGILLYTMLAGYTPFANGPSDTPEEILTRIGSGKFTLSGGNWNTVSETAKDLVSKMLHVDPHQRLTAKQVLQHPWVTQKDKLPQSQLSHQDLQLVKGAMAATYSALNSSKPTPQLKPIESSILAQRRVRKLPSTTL
structure (smiles),measurement,setting,value
Cn1cc(Cl)c2c(Oc3c(F)cc(Nc4cc(Cl)nc(N)n4)cc3F)ccnc21 [BAY-4900],residual activity,[1],100%
same,residual activity,[2],95%
same,residual activity,[3],88%
same,residual activity,[4],52%
same,inhibition,[5],-1.36%
same,inhibition,[6],-6.73%
Cc1c[nH]c2nccc(Oc3c(F)cc(Nc4cc(Cl)nc(N)n4)cc3F)c12 [BAY-549],IC50,[7],0.065 µM (active)
same,inhibition,[8],14%
same,inhibition,[9],3%
same,inhibition,[10],33%
same,inhibition,[11],60%
same,inhibition,[12],10%
same,inhibition,[13],72%
same,inhibition,[14],21%
same,TGI,"[15]; Homo sapiens, MCF7",> 100 µM
same,CC50,"[15]; Homo sapiens, MCF7, read-out: LC50 (the source's name)",> 100 µM
same,Mean % growth (n = 2) for 1.0 µM probe concentration,[15]; ± SEM 1 % growth,87%
same,Mean % growth (n = 2) for 10.0 µM probe concentration,[15]; ± SEM 2 % growth,57%
same,Mean % growth (n = 2) for 0.01 µM probe concentration,[15]; ± SEM 3 % growth,92%
same,Mean % growth (n = 2) for 100.0 µM probe concentration,[15]; ± SEM 4 % growth,6%
same,Mean % growth (n = 2) for 0.1 µM probe concentration,[15]; ± SEM 9 % growth,89%
same,IC50,"[16]; Homo sapiens, T47D",2.9 µM
same,TGI,"[16]; Homo sapiens, T47D",15 µM
same,CC50,"[16]; Homo sapiens, T47D, read-out: LC50 (the source's name)",75 µM
same,Mean % growth (n = 2) for 1.0 µM probe concentration,[16]; ± SEM 1 % growth,86%
same,Mean % growth (n = 2) for 100.0 µM probe concentration,[16]; ± SEM 2 % growth,-45%
same,Mean % growth (n = 2) for 10.0 µM probe concentration,[16]; ± SEM 4 % growth,-2%
same,Mean % growth (n = 2) for 0.01 µM probe concentration,[16]; ± SEM 6 % growth,106%
same,Mean % growth (n = 2) for 0.1 µM probe concentration,[16]; ± SEM 8 % growth,97%
same,Mean % growth (n = 2) for 0.01 µM probe concentration,[17],101%
same,IC50,"[17]; Homo sapiens, DLD-1",2.4 µM
same,TGI,"[17]; Homo sapiens, DLD-1",> 100 µM
same,CC50,"[17]; Homo sapiens, DLD-1, read-out: LC50 (the source's name)",> 100 µM
same,Mean % growth (n = 2) for 10.0 µM probe concentration,[17]; ± SEM 1 % growth,24%
same,Mean % growth (n = 2) for 100.0 µM probe concentration,[17]; ± SEM 1 % growth,5%
same,Mean % growth (n = 2) for 0.1 µM probe concentration,[17]; ± SEM 2 % growth,94%
same,Mean % growth (n = 2) for 1.0 µM probe concentration,[17]; ± SEM 4 % growth,66%
same,Mean % growth (n = 2) for 10.0 µM probe concentration,[18],27%
same,IC50,"[18]; Homo sapiens, ACHN",3.6 µM
same,TGI,"[18]; Homo sapiens, ACHN",32 µM
same,CC50,"[18]; Homo sapiens, ACHN, read-out: LC50 (the source's name)",> 100 µM
same,Mean % growth (n = 2) for 0.01 µM probe concentration,[18]; ± SEM 1 % growth,103%
same,Mean % growth (n = 2) for 0.1 µM probe concentration,[18]; ± SEM 2 % growth,106%
same,Mean % growth (n = 2) for 100.0 µM probe concentration,[18]; ± SEM 4 % growth,-25%
same,Mean % growth (n = 2) for 1.0 µM probe concentration,[18]; ± SEM 10 % growth,60%
same,IC50,"[19]; Homo sapiens, SK-MEL-5",16 µM
same,TGI,"[19]; Homo sapiens, SK-MEL-5",50 µM
same,CC50,"[19]; Homo sapiens, SK-MEL-5, read-out: LC50 (the source's name)",> 100 µM
same,Mean % growth (n = 2) for 100.0 µM probe concentration,[19]; ± SEM 1 % growth,-32%
same,Mean % growth (n = 2) for 0.01 µM probe concentration,[19]; ± SEM 3 % growth,106%
same,Mean % growth (n = 2) for 1.0 µM probe concentration,[19]; ± SEM 3 % growth,98%
same,Mean % growth (n = 2) for 10.0 µM probe concentration,[19]; ± SEM 6 % growth,65%
same,Mean % growth (n = 2) for 0.1 µM probe concentration,[19]; ± SEM 8 % growth,89%
same,inhibition,[20],11.7%
same,inhibition,[21],24.9%
same,inhibition,[22],99%
